Test results reported in patent US9512117B2 (priority 2010, dated 2016).

Key:
[1] = logP by HPLC on reversed-phase columns (C 18), EEC directive 79/831 Annex V.A8; type: physicochemical; settings: LC-MS; for Log P [a] / chromatographic logP: acidic range, pH 2.7, 0.1% aqueous formic acid and acetonitrile; for Log P [b]: neutral range, pH 7.8, 0.001 molar aqueous ammonium hydrogencarbonate and acetonitrile; for chromatographic logP: reversed-phase HPLC column (C18), read-out: Log P [a]
Method: The logP values were measured according to EEC directive 79/831 Annex V.A8 by HPLC (High Performance Liquid Chromatography) on reversed-phase columns (C 18), using the methods below:
^[a] The LC-MS determination in the acidic range is effected at pH 2.7 with 0.1% aqueous formic acid and acetonitrile (contains 0.1% formic acid) as eluents; linear gradient from 10% acetonitrile to 95% acetonitrile.
^[b] The LC-MS determination in the neutral range is effected at pH 7.8 using 0.001 molar aqueous ammonium hydrogencarbonate solution and acetonitrile as eluents; linear gradient from 10% acetonitrile to 95% acetonitrile.
The calibration is effected with unbranched alkan-2-ones (having 3 to 16 carbon atoms) with known logP values (logP values determined on the basis of the retention times by linear interpolation between two successive alkanones).

Phytophthora infestans = type: in vivo; settings: young tomato plants, protective spray, 100 ppm active ingredient, evaluation 7 days after inoculation; 0% = control, 100% = no infection
Plasmopara viticola = experiment: Plasmopara test (grapevine) / protective; type: in vivo; settings: young grapevine plants, protective spray, 10 ppm active ingredient, evaluation 6 days after inoculation; 0% = control, 100% = no infection
Method: Plasmopara Test (Grapevine)/Protective
• Solvent: 24.5 parts by weight of acetone • 24.5 parts by weight of dimethylacetamide • Emulsifier: 1 part by weight of alkylaryl polyglycol ether
To produce a suitable active ingredient formulation, 1 part by weight of active ingredient is mixed with the stated amounts of solvent and emulsifier, and the concentrate is diluted with water to the desired concentration.
To test for protective efficacy, young plants are sprayed with the active ingredient formulation at the stated application rate. After the spray coating has dried on, the plants are inoculated with an aqueous spore suspension of Plasmopara viticola and then remain in an incubation cabin at approx. 20° C. and 100% relative air humidity for 1 day. Subsequently, the plants are placed in a greenhouse at approx. 21° C. and approx. 90% air humidity for 4 days. The plants are then moistened and placed in an incubation cabin for 1 day.
Evaluation follows 6 days after the inoculation. 0% means an efficacy which corresponds to that of the control, whereas an efficacy of 100% means that no infection is observed.
In this test, the following inventive compounds show, at an active ingredient concentration of 10 ppm, an efficacy of 70% or more: […]

Row | Compound | Log P [a] [1] | Log P [b] [1] | Eff. % (Phytophthora infestans) [%] | Eff. % (Plasmopara viticola) [%] | chromatographic logP [1]
1 | COCCOc1ccccc1C1CC(c2csc(C3CCN(C(=O)Cn4nc(C(F)(F)F)cc4C)CC3)n2)=NO1 (racemic) [Ex. 55] | 3.27[a]; | 3.25[b] | 92 | 93 | 
2 | Cc1cc(C(F)(F)F)nn1CC(=O)N1CCC(c2nc(C3=NOC(c4ccccc4OC(=O)C4CC4)C3)cs2)CC1 (racemic) [Ex. 56] | 3.52[a]; | 3.41[b] | 89 | 98 | 
3 | Cc1cc(C(F)(F)F)nn1CC(=O)N1CCC(c2nc(C3=NOC(c4cccc(C=O)c4)C3)cs2)CC1 (centres unmarked) [Ex. 1] | 2.83[a] |  | 100 | 98 | 
4 | Cc1ccc(Cl)cc1NC(=O)N1CCC(c2nc(C3=NOC(c4cccc(C=O)c4)C3)cs2)CC1 (centres unmarked) [Ex. 2] | 3.05[a] |  | 100 | 100 | 
5 | Cc1ccc(Cl)cc1NC(=O)N1CCC(c2nc(C3=NOC(c4ccccc4C=O)C3)cs2)CC1 (centres unmarked) [Ex. 3, N-(5-Chloro-2-methylphenyl)-4-{4-[5-(2-formylphenyl)-4,5-dihydro-1,2-oxazol-3-yl]-1,3-thiazol-2-yl}piperidine-1-carboxamide] |  |  | 100 | 100 | 3.35
6 | CS(=O)(=O)Nc1ccccc1C1CC(c2csc(C3CCN(C(=O)Cc4cc(C(F)F)ccc4C(F)F)CC3)n2)=NO1 (centres unmarked) [Ex. 4, N-(2-{3-[2-(1-{[2,5-Bis(difluoromethyl)phenyl]acetyl}piperidin-4-yl)-1,3-thiazol-4-yl]-4,5-dihydro-1,2-oxazol-5-yl}phenyl)methanesulphonamide] |  |  | 95 | 95 | 2.81
7 | CS(=O)(=O)Nc1ccccc1C1CC(c2csc(C3CCN(C(=O)Nc4cc(C(F)F)ccc4C(F)F)CC3)n2)=NO1 (centres unmarked) [Ex. 6, N-[2,5-Bis(difluoromethyl)phenyl]-4-[4-(5-{2-[(methylsulphonyl)amino]phenyl}-4,5-dihydro-1,2-oxazol-3-yl)-1,3-thiazol-2-yl]piperidine-1-carboxamide] |  |  | 95 | 98 | 2.72
8 | Cc1cc(C(F)(F)F)nn1CC(=O)N1CCC(c2nc(C3=NOC(c4ccccc4C=O)C3)cs2)CC1 (centres unmarked) [Ex. 7, 2-{3-[2-(1-{[5-Methyl-3-(trifluoromethyl)-1H-pyrazol-1-yl]acetyl}piperidin-4-yl)-1,3-thiazol-4-yl]-4,5-dihydro-1,2-oxazol-5-yl}benzaldehyde] |  |  | 100 | 100 | 3.12
9 | C#CCOc1cccc(Cl)c1C1CC(c2csc(C3CCN(C(=O)Cn4nc(C(F)(F)F)cc4C)CC3)n2)=NO1 (centres unmarked) [Ex. 11] | 3.62[a]; | 3.53[b] | 85 | 100 | 
10 | C#CCOc1cccc(F)c1C1CC(c2csc(C3CCN(C(=O)Cn4nc(C(F)(F)F)cc4C)CC3)n2)=NO1 (centres unmarked) [Ex. 12] | 3.35[a]; | 3.27[b] | 75 | 100 | 
11 | C#CCOc1ccccc1C1CC(c2csc(C3CCN(C(=O)Cn4nc(C(F)(F)F)cc4C)CC3)n2)=NO1 (centres unmarked) [Ex. 13] | 3.47[a]; | 3.37[b] | 89 | 100 | 
12 | C=CCOc1ccccc1C1CC(c2csc(C3CCN(C(=O)Cn4nc(C)cc4C(F)F)CC3)n2)=NO1 (centres unmarked) [Ex. 18] | 3.42[a]; | 3.33[b] | 100 | 95 | 
13 | C=CCOc1cccc(F)c1C1CC(c2csc(C3CCN(C(=O)Nc4cc(C)ccc4C)CC3)n2)=NO1 (centres unmarked) [Ex. 25] | 3.64[a]; | 3.62[b] | 100 | 100 | 
14 | C#CCOc1ccccc1C1CC(c2csc(C3CCN(C(=O)Cn4nc(C)cc4C(F)F)CC3)n2)=NO1 (centres unmarked) [Ex. 29] | 3.03[a] |  | 100 | 100 | 
15 | C=CCOc1ccccc1C1CC(c2csc(C3CCN(C(=O)Cn4nc(C(F)(F)F)cc4C)CC3)n2)=NO1 (centres unmarked) [Ex. 30] | 3.86[a]; | 3.73[b] | 97 | 100 | 
